Source: ChEMBL document CHEMBL2321724 (J Med Chem, 2013)

Tests used:
[1] = target: T1, Voltage-gated inwardly rectifying potassium channel KCNH2 (Homo sapiens, UniProt Q12809); test: Displacement of [3H]astemizole from human ERG K+ channel expressed in HEK293 cells by scintillation spectrophotometric analysis
hERG (KCNH2) K+ channel [2] = target: T2, hERG (KCNH2) K+ channel (Homo sapiens, UniProt Q12809); test: Displacement of [3H]astemizole from human ERG K+ channel expressed in HEK293 cells at 10 uM by scintillation spectrophotometric analysis
[3] = target: T1, Voltage-gated inwardly rectifying potassium channel KCNH2; test: Inhibition of human ERG K+ channel expressed in HEK293 cells after 15 mins by patch clamp assay; type: cell-based
hERG (KCNH2) K+ channel [4] = target: T2, hERG (KCNH2) K+ channel; test: Assay index, ratio of IC50 for human ERG K+ channel expressed in HEK293 cells by patch clamp assay to IC50 for human ERG K+ channel expressed in HEK293 cells by radioligand binding assay; type: cell-based; conditions: HEK293 cells expressing human ERG K+ channel, read-out: Ratio IC50
[5] = HEK293 cells expressing human ERG K+ channel, probe [3H]astemizole

T2 sequence (Q12809 whole entry): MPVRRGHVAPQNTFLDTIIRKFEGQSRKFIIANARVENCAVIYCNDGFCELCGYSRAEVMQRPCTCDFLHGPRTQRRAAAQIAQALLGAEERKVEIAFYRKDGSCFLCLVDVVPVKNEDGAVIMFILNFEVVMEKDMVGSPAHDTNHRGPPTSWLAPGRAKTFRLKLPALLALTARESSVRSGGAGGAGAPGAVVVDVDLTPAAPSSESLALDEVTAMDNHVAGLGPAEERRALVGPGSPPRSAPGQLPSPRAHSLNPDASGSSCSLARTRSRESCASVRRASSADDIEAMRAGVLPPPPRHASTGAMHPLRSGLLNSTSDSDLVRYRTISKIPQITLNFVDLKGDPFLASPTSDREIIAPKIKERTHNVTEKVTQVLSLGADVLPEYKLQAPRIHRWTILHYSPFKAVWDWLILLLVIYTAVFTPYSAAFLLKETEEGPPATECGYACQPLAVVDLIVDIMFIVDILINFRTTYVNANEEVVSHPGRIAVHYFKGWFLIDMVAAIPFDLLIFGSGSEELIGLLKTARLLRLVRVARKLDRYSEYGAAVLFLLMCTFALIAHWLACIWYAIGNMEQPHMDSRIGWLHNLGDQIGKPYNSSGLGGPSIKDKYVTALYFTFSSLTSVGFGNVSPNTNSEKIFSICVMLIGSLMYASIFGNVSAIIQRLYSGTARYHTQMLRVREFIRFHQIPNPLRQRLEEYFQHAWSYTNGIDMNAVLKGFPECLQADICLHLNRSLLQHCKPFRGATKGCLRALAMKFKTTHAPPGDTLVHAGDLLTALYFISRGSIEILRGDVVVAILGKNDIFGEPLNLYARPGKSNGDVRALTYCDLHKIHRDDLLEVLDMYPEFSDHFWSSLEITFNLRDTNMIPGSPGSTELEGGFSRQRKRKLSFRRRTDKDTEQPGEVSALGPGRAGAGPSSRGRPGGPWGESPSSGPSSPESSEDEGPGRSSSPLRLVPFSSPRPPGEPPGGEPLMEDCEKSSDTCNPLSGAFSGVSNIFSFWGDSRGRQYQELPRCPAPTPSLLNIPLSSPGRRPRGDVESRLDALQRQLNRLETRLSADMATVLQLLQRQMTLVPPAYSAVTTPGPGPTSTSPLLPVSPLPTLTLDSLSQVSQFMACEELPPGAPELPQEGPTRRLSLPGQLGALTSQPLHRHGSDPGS
T1 sequence (Q12809 whole entry): as above

**Q.** `Cc1ccc(COCc2cccc(COCc3ccc(C)cc3)[n+]2C)cc1` was tested. Which IC50 [1] did it give?
**A.** The IC50 was 107 nM.

**Q.** `c1ccc(OCc2cccc(COc3ccccc3)n2)cc1` was tested. Which inhibition at 10 µM (hERG (KCNH2) K+ channel [2]; hek293) did it give?
**A.** Its inhibition at 10 µM is 15%.

**Q.** What does the source list for `Cc1ccc(Cc2ccnc(COc3ccc(C)cc3)c2)cc1`?
**A.** inhibition at 10 µM (hERG (KCNH2) K+ channel [2]; [5]): -3%; IC50 [1]: > 10000 nM

**Q.** `C[n+]1c(C#Cc2ccc(-c3ccccc3)cc2)cccc1C#Cc1ccc(-c2ccccc2)cc1` was tested. Which IC50 [1] did it give?
**A.** Its IC50 is 294 nM.

**Q.** Which IC50 [1] does the source give for `Cc1ccc(CCOCc2cccc(COCCc3ccc(C)cc3)[n+]2C)cc1` here?
**A.** The IC50 was 135 nM.

**Q.** For `C[n+]1c(C#Cc2cccc(Cl)c2)cccc1C#Cc1cccc(Cl)c1`, which IC50 [1] is on record?
**A.** The IC50 was 4020 nM.

**Q.** For `Cc1ccc(CCOCCCc2cccc(CCCOCCc3ccc(C)cc3)[n+]2C)cc1`, which IC50 [1] is on record?
**A.** The IC50 was 371 nM.

**Q.** What does the source list for `Cc1ccc(CCCOCc2cccc(COCCCc3ccc(C)cc3)[n+]2C)cc1`?
**A.** IC50 [3]: 194 nM; selectivity ratio (hERG (KCNH2) K+ channel [4]): 8.1; IC50 [1]: 24 nM

**Q.** `c1ccc(CCc2cccc(CCc3ccccc3)c2)cc1` was tested. Which inhibition at 10 µM (hERG (KCNH2) K+ channel [2]; [5]) did it give?
**A.** Its inhibition at 10 µM is 8%.

**Q.** How did the IC50 [1] turn out when `CCCCCCC#Cc1cccc(C#CCCCCCC)[n+]1C` was run?
**A.** The IC50 was 1990 nM.

**Q.** `Cc1ccc(OCCCc2cc(N)cc(CCCOc3ccc(C)cc3)n2)cc1` was tested. Which IC50 [3] did it give?
**A.** Its IC50 is 146 nM.

**Q.** What about the selectivity ratio (hERG (KCNH2) K+ channel [4]) of the same compound?
**A.** Its selectivity ratio is 0.86.

**Q.** What about the IC50 [1] of the same compound?
**A.** The IC50 was 170 nM.

**Q.** Which IC50 [1] does the source give for `C[n+]1c(CCCOc2ccccc2)cccc1CCCOc1ccccc1` here?
**A.** Its IC50 is 208 nM.

**Q.** With `C[n+]1c(C#Cc2ccccc2Cl)cccc1C#Cc1ccccc1Cl` as the compound, how does the IC50 [1] read?
**A.** The IC50 was 3900 nM.

**Q.** With `C[n+]1c(C#CCOc2ccccc2Cl)cccc1C#CCOc1ccccc1Cl` as the compound, how does the inhibition at 10 µM (hERG (KCNH2) K+ channel [2]; [5]) read?
**A.** Its inhibition at 10 µM is 16%.

**Q.** How did the inhibition at 10 µM (hERG (KCNH2) K+ channel [2]; [5]) turn out when `C(#Cc1cccc(C#Cc2ccccc2)n1)c1ccccc1` was run?
**A.** Its inhibition at 10 µM is -11%.

**Q.** How did the IC50 [1] turn out when `Cc1ccc(C#Cc2cccc(C#Cc3ccc(C)cc3)[n+]2C)cc1` was run?
**A.** The IC50 was 285 nM.

**Q.** Which IC50 ([1]; human, hek293) does the source give for `Cc1ccc(CCc2cccc(CCc3ccc(C)cc3)n2)cc1` here?
**A.** Its IC50 is over 10000 nM.

**Q.** With `Cc1ccc(Cc2cccc(COc3ccc(C)cc3)n2)cc1` as the compound, how does the inhibition at 10 µM (hERG (KCNH2) K+ channel [2]; hek293) read?
**A.** Its inhibition at 10 µM is 9%.

**Q.** For `C[n+]1c(COc2ccccc2)cccc1COc1ccccc1`, which IC50 [1] is on record?
**A.** Its IC50 is 767 nM.

**Q.** Which results are given for `Cc1ccc(OCCCc2cccc(CCCOc3ccc(C)cc3)[n+]2C)cc1`?
**A.** IC50 [3]: 962 nM; selectivity ratio (hERG (KCNH2) K+ channel [4]): 11.2; IC50 [1]: 86 nM

**Q.** How did the IC50 [1] turn out when `c1ccc(CCc2cccc(CCc3ccccc3)n2)cc1` was run?
**A.** Its IC50 is 1610 nM.
